“Also recorded” adds a separate entry of the source. Where a name gives a salt, the structure may show the parent alone.
Tested on: field grown tomato plants
Test: Overall yield and fruit size of field grown tomatoes
Assay type: in vivo
Settings: for Fruit Size, Green (% of Control): control 104.0 g; for Fruit Size, Red (% of Control): control 105.5 g
Text: This example illustrates the effects of compounds of this invention on overall yield of tomatoes. For the test, field grown tomato plants, when in the early flowering stage, were foliage sprayed with the particular compounds of the invention designated below, and with the commercial product CF-125 (Maintain), at rates of 10, 50 and 500 ppm. These rates correspond to applications of 3.69 g, 18.54 g and 185.4 g/hectare, respectively. Each treatment consisted of five plants; the experimental design was a complete randomized block with three replications. A block of untreated plants was included as the control. The fruit was harvested by hand and separated into […] ripe fruit and marketable green fruit.

## O=C(O)c1cccc2c1Cc1ccccc1-2 [Example 3, 2,6-Dimethyl piperidine salt of fluorene-1-carboxylic acid]
10, 50 and 500 ppm, Example 1 decrease at 500 ppm
  tomato yield / fruit size, in words: increased the yield of red fruit at all rates of application; also recorded: increasing the size of the fruit
10 ppm
  Fruit Yield, Green (% of Control): 45 % of Control
  Fruit Yield, Red (% of Control): 119 % of Control
  Total Yield (% of Control): 70 % of Control
  Fruit Size, Green (% of Control): 137 % of Control
  Fruit Size, Red (% of Control): 161 % of Control
50 ppm
  Fruit Yield, Green (% of Control): 69 % of Control
  Fruit Yield, Red (% of Control): 122 % of Control
  Total Yield (% of Control): 128 % of Control
  Fruit Size, Green (% of Control): 101 % of Control
  Fruit Size, Red (% of Control): 165 % of Control
500 ppm
  Fruit Yield, Green (% of Control): 86 % of Control
  Fruit Yield, Red (% of Control): 127 % of Control
  Total Yield (% of Control): 59 % of Control
  Fruit Size, Green (% of Control): 83 % of Control
  Fruit Size, Red (% of Control): 127 % of Control
